From PubChem BioAssay (NCI) come the findings set out here.

Test systems include RXF 393 renal; UO-31 renal; HOP-92 NSCLC; OVCAR-8 ovarian; K-562 leukemia; 786-0 renal; SF-539 CNS; SN12C renal; A498 renal; HT29 colon.
Common to all, as to experiment: NCI tumour cell line growth inhibition, 48 h

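48-hour exposure; five concentrations; linearly interpolated endpoints. TGI: total growth inhibition.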 Some results are limits rather than exact numbers.

As to `CC1CN=C(c2ccc(COc3ccc(C4=NCC(C)N4)cc3)cc2)N1` (stereo not given), the TGI in the assay with RXF 393 renal, with UO-31 renal, in the assay on HOP-92 NSCLC, in the assay on OVCAR-8 ovarian, in the assay with K-562 leukemia and in the assay on 786-0 renal was over 100 µM each time. The TGI with SF-539 CNS, in the assay with SN12C renal, in the assay on A498 renal and with HT29 colon was over 100 µM throughout.

With `CCCCCCCCCCCCCCCCP(=O)([O-])OCC[N+](C)(C)C`, the TGI with RXF 393 renal came to 15 µM; in the assay with UO-31 renal, 28.2 µM; in the assay with HOP-92 NSCLC it was 29 µM; with OVCAR-8 ovarian, 32.7 µM; with K-562 leukemia, 35.7 µM; with 786-0 renal it was 19.9 µM. Also, the TGI is 39.8 µM with SF-539 CNS, 26.2 µM with SN12C renal, 29.1 µM with A498 renal and 25.5 µM in the assay with HT29 colon.

For the compound `CC1=CC(=O)/C(=C/n2c(=S)[nH]c3ccccc32)C(=O)O1`, the TGI in the assay on RXF 393 renal, with UO-31 renal, in the assay on HOP-92 NSCLC, in the assay with OVCAR-8 ovarian, in the assay on K-562 leukemia and in the assay with 786-0 renal was over 100 µM throughout. The TGI in the assay on SF-539 CNS, in the assay on SN12C renal, with A498 renal and in the assay with HT29 colon was over 100 µM each time.

On to `C=CC(Br)(CBr)CCC(Br)C(C)C` (stereo not given), for which the TGI with RXF 393 renal was 20.3 µM; in the assay with UO-31 renal, 26.3 µM; in the assay on HOP-92 NSCLC it was 23.2 µM; in the assay with OVCAR-8 ovarian, 8.58 µM; in the assay with K-562 leukemia, 6.94 µM; with 786-0 renal it was 2.93 µM. Besides, the TGI with SF-539 CNS turned out to be 6.02 µM; in the assay on SN12C renal, 27.2 µM; in the assay with A498 renal, 32.8 µM; in the assay with HT29 colon, 8.4 µM.

For `COc1cccc(-c2cc(=O)c3cc(Cl)cnc3[nH]2)c1`, the TGI in the assay on RXF 393 renal is over 100 µM; in the assay with UO-31 renal, over 62 µM; in the assay with HOP-92 NSCLC it was 63.9 µM; in the assay on OVCAR-8 ovarian it was 43.9 µM; in the assay on K-562 leukemia, over 100 µM; in the assay on 786-0 renal, 42.2 µM. Further, the TGI with SF-539 CNS is 2.56 µM; with SN12C renal it was over 100 µM; in the assay on A498 renal it was over 100 µM; in the assay with HT29 colon, 13.8 µM.

Turning to `O=C1c2cc([N+](=O)[O-])sc2C(=O)c2ccsc21`, the TGI was 1.05 µM with RXF 393 renal; 2.59 µM with UO-31 renal; 0.443 µM with HOP-92 NSCLC; 2.01 µM in the assay on OVCAR-8 ovarian; 0.191 µM with K-562 leukemia; 0.948 µM in the assay on 786-0 renal. Also, the TGI with SF-539 CNS was determined as 0.938 µM; in the assay on SN12C renal, 1.33 µM; in the assay on A498 renal, 4.37 µM; in the assay on HT29 colon, 1.48 µM.

With `Cc1cc(O)c(C(C)C)cc1N=Cc1ccccc1O`, the TGI with RXF 393 renal was 2.64 µM; in the assay on UO-31 renal, 33.7 µM; in the assay with HOP-92 NSCLC, 1.82 µM; in the assay on OVCAR-8 ovarian, over 29.6 µM; with K-562 leukemia, over 22.3 µM; in the assay with 786-0 renal, 26.3 µM. For the same compound, the TGI is 49.3 µM with SF-539 CNS, 12.2 µM in the assay on SN12C renal, 66.2 µM in the assay on A498 renal and over 74 µM in the assay with HT29 colon.

Turning to `O=C1C[C@H](c2ccc(O)c(O)c2)Oc2cc(O)cc(O)c21`, the TGI in the assay with RXF 393 renal, in the assay with UO-31 renal, with HOP-92 NSCLC, in the assay with OVCAR-8 ovarian, in the assay on K-562 leukemia and with 786-0 renal was over 100 µM each time. Besides, the TGI in the assay on SF-539 CNS, in the assay with SN12C renal, in the assay on A498 renal and in the assay with HT29 colon was over 100 µM each time.
